US20190125753A1, “COMPOUNDS AND METHODS FOR INCREASING HEMATOPOIESIS” (University of Southern California, priority 2016, published 2019)

Experiments:
[1] = tested on: lethally irradiated animals; experiment: Survival after lethal dose whole body radiation; type: in vivo, mouse
Procedure: We next tested if YH250 can rescue animals from lethal dose radiation. […] However, YH250 (2 mg/Kg) administrated 24 hours post radiation rescued 50% of animals (Kaplan-Meier analysis p=0.0002).
With 8.5Gy radiation, all the animals (100%) survived in YH250 treatment group while there are only 30% animals survived in DMSO treatment group (p=0.0016, FIG. 21C). […] In principle, to optimize radiation remediation therapy, it should be advantageous to first (a) symmetrically expand the remaining viable stem cell pool (either HSC or ISC), using a method to enhance symmetric non-differentiative proliferation, i.e., by blocking the p300/catenin interaction thereby enhancing CBP/catenin signaling and (b) subsequently induce the differentiation of the stem cell pool via asymmetric divisions to enhance tissue repair and regeneration as rapidly as possible using a CBP/catenin antagonist. We therefore decided to test sequential administration of the p300/catenin antagonist YH250, followed by subsequent administration of the CBP/catenin antagonist ICG-001. An additional potential therapeutic benefit utilizing a CBP/catenin antagonist would be protection against fibrosis, which is a common chronic complication associated with radiation damage. […] We thus treated mice with either vehicle, YH250 (single 2 mg/Kg s.c., injection at 24 h post irradiation), ICG-001 (single 50 mg/Kg s.c., injection at 24 h post irradiation) or the combination of YH250/ICG-001, with YH250 (2 mg/Kg) given 24 h post irradiation followed by ICG-001 (50 mg/Kg) injection for 5 consecutive days starting at 48 h post-irradiation. After irradiation and the corresponding treatments, no special care was provided. The life-span after irradiation was observed on a daily basis and recorded.

[2] = tested on: Human survivin promoter; experiment: Survivin/luciferase reporter (Survivin-Hek-293); type: cell-based; settings: Homo sapiens; Survivin-Hek-293, 24 hours; read-out: survivin/luciferase reporter: did not inhibit up to
Procedure: Hek293 cells were stably transfected with plasmid that contains multiple TCF/LEF fragments in front of Luciferase gene. Wnt/β-catenin activity was determined from luciferase expression levels. […] Briefly, stably transfected Hek-293, STFI.1 (Wnt/β-catenin-driven luciferase) and Survivin-Hek-293 (1 Kb Human survivin promoter-driven luciferase) cells were maintained in DMEM, 10% FBS, Pen/Strep with 400 μg/mL G418 or 2 μg/mL puromycin, respectively. To check the activity of ICG-001, YH249, and YH250, the cells were split into white-opaque 96-well plates at 10,000 cells per well and allowed to attach overnight. For SuperTOPLASH, the inhibitors were added to the cells and pre-incubated for 1 hour prior to stimulation with 10 mM Li Cl for 24 hours. Luciferase activity was read using BrightGlo (Promnega) luciferase substrate. For survivin/luc, the inhibitors were added to the cells and incubated for 24 hours prior to readout. To calculate IC5o values, the resulting curve was fitted to a four-parameter logistic model (4PL) using GraphPad Prism 5 software.
B. Survivin Expression Level: The Secondary Screen.
An endogenous human survivin 1 kb promoter was inserted before a luciferase gene. […] R1 and R2 were diversified in this study. Percent inhibition of luciferase activity was calculated according to the following equations; % inhibition of STF 1.1 reporter activity=(I−RLU(10 mM LiCl) treated/RLU(10 omM LiCl) vehicle×control)100, % inhibition of Survivin reporter activity=(1−RLUtreated/RLU vehicle control)×100. Error bars indicate the mean±SE of 3 separate experiments. Selectivity (FIG. 2H) was calculated by IC50 value for Survivin-Hek-293/IC50 value for STF 1.1.

[3] = tested on: LSK150+41−48− cells (LTR-HSC); experiment: RNA sequencing of long-term repopulating HSC from treated mice; type: in vivo, mouse; settings: 2 mg/kg vs DMSO, 16 hours
Procedure: DMSO or YH250 (2 mg/kg) were administrated to female C57/Black mice.

In the case of `COc1cccc(CNC(=O)N2C3CN(Cc4cc(Cl)cc(Cl)c4N(C)C)C(=O)[C@H](Cc4ccc(O)cc4)N3C(=O)CN2C)c1OC` (stereo partly shown) [YH250], the “body weight vs DMSO” value ([1]; 8.5Gy) is reported as “less body weight drop”, the animals survived ([1]; 8.5Gy (LD70/60), 2 mg/Kg 24 hours post radiation, DMSO 30%, p=0.0016) is reported as 100% and the body weight ([1]; 9Gy) is reported as “less body weight drop”. The “animals rescued (survival)” value ([1]; 9Gy (LD100/60), 2 mg/Kg 24 hours post radiation, p=0.0002) was 50%, the “life-span after irradiation vs control group” value ([1]; YH250 2 mg/Kg s.c. 24 h post irradiation, combination followed by ICG-001 50 mg/Kg 5 consecutive days from 48 h) was “significantly extended life-spans” and the IC50 [2] was over 20 µM. The “Fold-Change A430005L14Rik” value [3] was 2.07 fold, the “Fold-Change Car1” value [3] was 46.29 fold and the “Fold-Change Casp6” value [3] was 2.56 fold. For the same molecule, the “Fold-Change Cd52” value [3] was 3.09 fold, the “Fold-Change Cd53” value [3] was 2.79 fold and the “Fold-Change Cd69” value [3] was 2.44 fold. The “Fold-Change Cd74” value [3] was 2.30 fold, the “Fold-Change Cd79a” value [3] was 5.49 fold and the “Fold-Change Cdc123” value [3] was 2.13 fold. The “Fold-Change Dtx3” value [3] was −2.12 fold, the “Fold-Change Gm21897” value [3] was −2.18 fold and the “Fold-Change Gm26377 (miRNA)” value [3] was −58.02 fold. The “Fold-Change Ighm” value [3] was 6.14 fold, the “Fold-Change Ighv11-2” value [3] was 8.18 fold and the “Fold-Change Igj” value [3] was 3.36 fold. The “Fold-Change Igkc” value [3] was 3.93 fold, the “Fold-Change Igkv14-126” value [3] was 8.00 fold and the “Fold-Change Igkv19-93” value [3] was 21.16 fold. For the same molecule, the “Fold-Change Iglc2” value [3] was 4.58 fold, the “Fold-Change Il2rg” value [3] was 2.03 fold and the “Fold-Change Kcnq1ot1 (antisense)” value [3] was −2.37 fold. For the same molecule, the “Fold-Change Ldlr” value [3] was −3.57 fold, the “Fold-Change Ly6c2” value [3] was 7.17 fold and the “Fold-Change Mid1” value [3] was −3.98 fold. For the same molecule, the “Fold-Change Mrpl30” value [3] was 2.07 fold, the “Fold-Change Ndufaf7” value [3] was 3.45 fold and the “Fold-Change Pias1” value [3] was 2.02 fold. The “Fold-Change Psmf1” value [3] was 2.48 fold, the “Fold-Change RP23-99K18.3 (lincRNA)” value [3] was −2.28 fold and the “Fold-Change Tgtp1” value [3] was 2.85 fold. For the same molecule, the “Fold-Change Tmed4” value [3] was 2.06 fold.
